# Assay results reported in patent US10351613B2, “Polypeptide for inhibition of tumor” (G-Bio Pharma Tech Co., Ltd., priority 2015, dated 2019).
# Residues, ends and D or L forms follow the SMILES beside them.
# Key:
# SMMC7721 (Liver cancer) = test: MTT in vitro inhibition of SMMC7721; format: cell-based; conditions: for IC50: SMMC7721; for Cell Survival (%) at a polypeptide concentration of 1 mg/ml: SMMC7721, 1 mg/ml
# Protocol: (§1) Inhibition of cell growth was detected by a MTT method, which is based on the principle that succinate dehydrogenase in the mitochondria of the live cells could reduce the exogenous MTT (3-(4,5-dimethyl-2-thiazolyl)-2,5-diphenyl-tetrazolium bromide) to a […] Formazan which is a blue-violet crystal, and precipitates in the cells, while the death cells could not reduce MTT. DMSO could dissolve Formazan in the cells. Absorbance value of the solution was determined at 490/570 nm by microplate reader, which could indirectly indicate the amount of the live cells. The amount of the crystal from MTT is proportional to the amount of the cells within a certain range of cell number. The supernate from the HUVEC or tumor cells in exponential phase was removed and the cells were washed by PBS once. 1 ml 0.25% trypsin (4° C.) was added for digestion at 37° C. for 2 min. Then the supernate was added for neutralization and the cells were dispersed to form a suspension and the suspension was centrifuged at 1000 rpm for 3 min. The supernate was removed and 5 ml culture mediums were added for resuspension. Cells were inoculated in a 48-well plate by 500 ul/well at the concentration of 3×10^4/ml and then incubated under 5% CO2, 37° C. for 24 hours. The supernate was removed and a culture medium containing polypeptide (Zn^2+ in the culture medium was present at the concentration of 17.39 μmol/L) was added for further incubation for 48 hours. Supernate in each well was carefully removed. The well was gently washed by PBS once in an amount of 450 μl/well. 450 μl MTT culture mediums were added into each well for further cultivation for 4 hours. The supernate was carefully discarded. DMSO was added in an amount of 450 μl/well and then the plate was placed in a shaking bed for oscillation for 10 min in dark. 150 μl supernates were transferred to a 96-well ELISA plate and absorbance value of each well was detected at 490 nm and 570 nm by the microplate reader.
# (§2) P2 (SEQ ID NO:2) and P2T2S18 (SEQ ID NO:6) were tested for their in vitro inhibition on SMMC7221, SPC-A-1, A549, LS174T, BEL7402, CK-MES-1 and BxPC-3 at a polypeptide concentration of 1 mg/ml according to the method described in Example 3. Results are shown in FIG. 9 and the following Table. […] All IC50 concentrations for P2T2S18 are less than 1/10 IC50 concentration of P2.
# [1] = test system: CK-MES-1 (lung squamous cell carcinoma); test: MTT in vitro inhibition of CK-MES-1; format: cell-based; conditions: for IC50: CK-MES-1; for Cell Survival (%) at a polypeptide concentration of 1 mg/ml: CK-MES-1, 1 mg/ml
# Protocol: as §1, §2
# [2] = test system: lung cancer cell line SPC-A-1; test: In vitro death of SPC-A-1 tumor cell observed under optical microscope; format: cell-based; conditions: SPC-A-1, 2.5 mg/ml
# Protocol: Polypeptides were tested for their effect in inducing cell death of lung cancer cell line SPC-A-1 at a polypeptide concentration of 2.5 mg/ml according to the method described in Example 3. Cells were observed under an optical microscope over 24 hours and photos were taken. P2 exerts its function 4 hours after being added into the culture medium. […] On the contrary, they extremely swelled. 4 hours later cells further swelled and began to disintegrate at 8 hours. […] The manner of P2T2S18 caused cell death is very surprising. Currently, it is unable to determine what manner this kind of cell death belongs to. No report is found in papers as well. However, this mode of cell death is obviously different from that caused by P2. Together with the results in Example 7, it can conclude that P2T2S18 not only has a biological activity obviously higher than P2, but also has a manner causing cell death obviously different from that of P2.
# LS174T (Colon cancer) = format: cell-based
# Protocol: as §1, §2
# SPC-A-1 (lung carcinoma) = format: cell-based; conditions: for IC50: SPC-A-1; for Cell Survival (%) at a polypeptide concentration of 1 mg/ml: SPC-A-1, 1 mg/ml
# Protocol: as §1, §2
# [3] = test system: Human liver cancer BEL7404 tumor model; format: in vivo; conditions: for Tumor inhibitor rate (%): BEL7404, day 21, polypeptides 15 mg/kg sc 2 times per day 21 days, endostatin/endostar 50 mg/kg sc, CTX 30 mg/kg ip 7 days
# Protocol: (§3) In vitro cultured tumor cells in exponential phase and in good state were formulated to a 100 μl cell suspension containing 5×10^6 tumor cells. The suspension was subcutaneously inoculated to nude mice. Well-grown solid tumors were obtained 15 days later and cut into uniform pieces of about 3 mm under sterile condition. Each nude mouse was inoculated by one piece through a trocar. Mice were re-grouped according the tumor size 10-14 days after inoculation and animals having too large and too small tumor were excluded from the test. The average tumor volume for each group was basically identical. Test drugs were administered to each group according to the experimental protocol. The major axis (a) and minor axis (b) of the tumor were measured twice a week. Animals were sacrificed at the end of the test. The tumor was taken out, weighed and photos were taken. Tumor volume (TV)=½×a×b^2; Relative tumor volume (RTV)=Vt/Vo, wherein Vo is the tumor volume measured before grouping (one day before administration of the test drug), and Vt is the tumor volume measured at each time. Tumor inhibition rate (%)=(1−T/C)×100%, wherein T is the average tumor volume of the treatment group and C is the average tumor volume of the negative control group.
# The amino acid sequence of recombination endostatin (“endostatin”) was set forth in SEQ ID NO: 1, and the amino acid sequence of the marketed drug Endostar (“endostar”) was set forth in SEQ ID NO: 10. Human liver cancer BEL7404 tumor model was constructed according to the method described in Example 10. The test contained 6 groups, with 6 animals in each group, except for the negative control group which contained 9 animals. The molar dose of the polypeptides was basically equal to the molar dose of endostatin. The results are shown in FIGS. 11a and 11b and the following Table.
# [4] = test system: BxPC-3 (pancreatic cancer); test: MTT in vitro inhibition of BxPC-3; format: cell-based; conditions: for IC50: BxPC-3; for Cell Survival (%) at a polypeptide concentration of 1 mg/ml: BxPC-3, 1 mg/ml
# Protocol: as §1, §2
# BEL7402 (Liver cancer) = test: MTT in vitro inhibition of BEL7402; format: cell-based; conditions: for IC50: BEL7402; for Cell Survival (%) at a polypeptide concentration of 1 mg/ml: BEL7402, 1 mg/ml
# Protocol: as §1, §2
# [5] = test system: Human Umbilical Vein Endothelial Cell (HUVEC); format: cell-based
# Protocol: 20 cm umbilical cord adjacent to fetus was taken, cleaned by washing, ligated at both ends, placed into 150 ml preservation solutions for umbilical cord, and stored in a 4° C. refrigerator for digestion for 6 hours. The umbilical cord was inspected to remove the damaged portion. The umbilical vein was thoroughly cleaned by washing and then 10 ml collagenase solution was injected. Then the umbilical vein was transferred to a 37° C. incubator for digestion for 15 minutes. The umbilical cord was removed and the digested solution was recovered. The digested solution was washed by PBS and centrifuged. After centrifugation, the cells were culture by re-suspension.
# as §1
# tumor cell HepG2 = format: cell-based
# Protocol: as §1
# A549 (lung carcinoma) = test: MTT in vitro inhibition of A549; format: cell-based; conditions: for IC50: A549; for Cell Survival (%) at a polypeptide concentration of 1 mg/ml: A549, 1 mg/ml
# Protocol: as §1, §2
# [6] = test system: Human lung cancer A549 tumor model; test: Inhibition on in vivo growth of tumor in combination with DDP, A549 model; conditions: for Tumor inhibitor rate (%): A549, day 21
# Protocol: as §3, with “The average tumor volume for each group was basically identical.” left out
# The amino acid sequence of recombination endostatin (“endostatin”) was set forth in SEQ ID NO: 1, and the amino acid sequence of the marketed drug Endostar (“endostar”) was set forth in SEQ ID NO: 10. Human lung cancer A549 tumor model was constructed according to the method described in Example 10. The test contained 7 groups, with 6 animals in each group. The molar dose of the polypeptides was basically equal to the molar dose of endostatin.
structure (smiles),measurement,setting,value
CC[C@H](C)[C@H](NC(=O)CNC(=O)[C@H](CCCNC(=N)N)NC(=O)[C@H](CCSC)NC(=O)CNC(=O)CNC(=O)[C@H](CO)NC(=O)[C@H](CC(C)C)NC(=O)[C@H](CO)NC(=O)[C@H](CO)NC(=O)[C@H](CC(N)=O)NC(=O)[C@H](CC(C)C)NC(=O)[C@H](C)NC(=O)[C@@H](NC(=O)[C@H](CC(C)C)NC(=O)[C@H](Cc1c[nH]cn1)NC(=O)[C@H](CC(C)C)NC(=O)[C@@H](NC(=O)[C@@H]1CCCN1C(=O)[C@H](CCC(N)=O)NC(=O)[C@H](Cc1ccccc1)NC(=O)[C@H](CC(=O)O)NC(=O)[C@H](CCCNC(=N)N)NC(=O)[C@H](Cc1c[nH]cn1)NC(=O)[C@@H](NC(=O)[C@H](Cc1c[nH]cn1)NC(C)=O)[C@@H](C)O)C(C)C)C(C)C)C(=O)N[C@@H](CCCNC(=N)N)C(=O)NCC(=O)N[C@@H](C)C(=O)N[C@@H](CC(=O)O)C(N)=O [Polypeptide P2T2S18] (Ac-HTHRDFQPVLHLVALNSSLSGGMRGIRGAD-NH2),IC50,SMMC7721 (Liver cancer),76.9 mg/L
same,Cell Survival (%) at a polypeptide concentration of 1 mg/ml,SMMC7721 (Liver cancer),9%
same,IC50,[1],66.7 mg/L
same,Cell Survival (%) at a polypeptide concentration of 1 mg/ml,[1],7%
same,time after being added into the culture medium at which the polypeptide acts on the cells,[2],2 h
same,state of cells at 24 hours,[2],only cell debrises left
same,manner of induced cell death,[2]; optical microscope,"cells did not shrink. On the contrary, they extremely swelled"
same,IC50,LS174T (Colon cancer),84.7 mg/L
same,Cell Survival (%) at a polypeptide concentration of 1 mg/ml,LS174T (Colon cancer),1%
same,IC50,SPC-A-1 (lung carcinoma),80.6 mg/L
same,Cell Survival (%) at a polypeptide concentration of 1 mg/ml,SPC-A-1 (lung carcinoma),16%
same,IC50 concentration as fraction of IC50 concentration of P2,SPC-A-1 (lung carcinoma); all seven tumor cell lines of Example 10,less than 1/10
same,Tumor inhibitor rate (%),[3],76.7%
same,toxic reaction,"[3]; BEL7404 model, same regimens",did not produce toxic reaction
same,IC50,[4],78.1 mg/L
same,Cell Survival (%) at a polypeptide concentration of 1 mg/ml,[4],3%
same,IC50,BEL7402 (Liver cancer),64.9 mg/L
same,Cell Survival (%) at a polypeptide concentration of 1 mg/ml,BEL7402 (Liver cancer),4%
same,IC50 (ug/ml) HUVEC,[5],66.7 µg/mL
same,"Cell Survival (%), 1 mg/ml of polypeptide, HUVEC",[5],2%
same,Cell Survival (%) at a polypeptide concentration of 120 μM,"[5]; 6 h, 120",2%
same,reduction of IC50 concentration as compared to that of P2,[5]; HUVEC and HepG2,about 10 folds
same,IC50 (ug/ml) HepG2,tumor cell HepG2,76.9 µg/mL
same,"Cell Survival (%), 1 mg/ml of polypeptide, HepG2",tumor cell HepG2,4%
same,IC50,A549 (lung carcinoma),72.5 mg/L
same,Cell Survival (%) at a polypeptide concentration of 1 mg/ml,A549 (lung carcinoma),18%
"N.N.[Cl][Pt][Cl] [DDP, Cisplatin]",Tumor inhibitor rate (%),[6]; DDP 2 mg/kg/day ip 7 days alone or with polypeptide 15 mg/kg or endostatin/endostar 50 mg/kg sc 2 times per day 21 days,24.8%
same,Tumor inhibitor rate (%),[6]; DDP 6 mg/kg/day ip 7 days (high dose),81.9%
same,animals with residual tumor,"[6]; of 6 animals, combination with DDP 2 mg/kg, DDP alone 6 mg/kg",6
CC[C@H](C)[C@H](NC(=O)CNC(=O)[C@H](CCCNC(=N)N)NC(=O)[C@H](CCSC)NC(=O)CNC(=O)CNC(=O)[C@H](CO)NC(=O)[C@H](CC(C)C)NC(=O)[C@@H]1CCCN1C(=O)[C@H](CO)NC(=O)[C@H](CC(N)=O)NC(=O)[C@H](CC(C)C)NC(=O)[C@H](C)NC(=O)[C@@H](NC(=O)[C@H](CC(C)C)NC(=O)[C@H](Cc1c[nH]cn1)NC(=O)[C@H](CC(C)C)NC(=O)[C@@H](NC(=O)[C@@H]1CCCN1C(=O)[C@H](CCC(N)=O)NC(=O)[C@H](Cc1ccccc1)NC(=O)[C@H](CC(=O)O)NC(=O)[C@H](CCCNC(=N)N)NC(=O)[C@H](Cc1c[nH]cn1)NC(=O)[C@H](CO)NC(=O)[C@H](Cc1c[nH]cn1)NC(C)=O)C(C)C)C(C)C)C(=O)N[C@@H](CCCNC(=N)N)C(=O)NCC(=O)N[C@@H](C)C(=O)N[C@@H](CC(=O)O)C(N)=O [Polypeptide P2] (Ac-HSHRDFQPVLHLVALNSPLSGGMRGIRGAD-NH2),IC50,SMMC7721 (Liver cancer),1030.2 mg/L
same,Cell Survival (%) at a polypeptide concentration of 1 mg/ml,SMMC7721 (Liver cancer),42%
same,IC50,[1],863.1 mg/L
same,Cell Survival (%) at a polypeptide concentration of 1 mg/ml,[1],42%
same,time after being added into the culture medium at which the polypeptide acts on the cells,[2],4 h
same,state of cells at 24 hours,[2],basically died
same,IC50,LS174T (Colon cancer),1683.8 mg/L
same,Cell Survival (%) at a polypeptide concentration of 1 mg/ml,LS174T (Colon cancer),95%
same,IC50,SPC-A-1 (lung carcinoma),1111.8 mg/L
same,Cell Survival (%) at a polypeptide concentration of 1 mg/ml,SPC-A-1 (lung carcinoma),48%
same,Tumor inhibitor rate (%),[3],33.7%
same,IC50,[4],860.9 mg/L
same,Cell Survival (%) at a polypeptide concentration of 1 mg/ml,[4],40%
same,IC50,BEL7402 (Liver cancer),732.9 mg/L
same,Cell Survival (%) at a polypeptide concentration of 1 mg/ml,BEL7402 (Liver cancer),20%
same,IC50 (ug/ml) HUVEC,[5],733.4 µg/mL
same,"Cell Survival (%), 1 mg/ml of polypeptide, HUVEC",[5],25%
same,IC50 (ug/ml) HepG2,tumor cell HepG2,1033.4 µg/mL
same,"Cell Survival (%), 1 mg/ml of polypeptide, HepG2",tumor cell HepG2,41%
same,IC50,A549 (lung carcinoma),1312.2 mg/L
same,Cell Survival (%) at a polypeptide concentration of 1 mg/ml,A549 (lung carcinoma),57%
